Drawing on patent US9499535B2, “Kinase inhibitors” (ORIGENIS GMBH, priority 2011, dated 2016), this text covers Ki and IC50 for two compounds.

Molecules are shown by their SMILES. Some results are limits rather than exact numbers.

For experiment [1], the target named is T1, SYK kinase (Homo sapiens, UniProt P43405).
T1 construct: purchased Invitrogen, Carlsbad
Description: SYK assay (OMNIA Kinase Assay, Invitrogen). The following applies: apparent Ki calculated from the IC50 using the Cheng-Prusoff equation; 1 mM ATP, 10 μM Peptide Substrate; read-out: SYK Activities: Ki. Type of experiment: biochemical. Summed up: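 Continuous SOX-fluorescence (Omnia) readout of Tyr 7 peptide (10 μM) phosphorylation with 1 mM ATP and 0.2 mM DTT at 30° C, started by SYK addition. Fluorescence (λex 360/λem 485 nm) was read every 30 s for 30 min. IC50 from velocity vs concentration; apparent Ki via Cheng-Prusoff.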

Experiment [2] deals with MYLK (Homo sapiens, UniProt Q15746). Description: MYLK assay (LanthaScreen Eu Kinase Binding Assay). The following applies: 5 nM MYLK, 30 nM tracer 236, RT 1 h; read-out: MYLK Activites: IC50. Summed up:
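TR-FRET tracer-displacement binding: 5 nM MYLK with 2 nM Eu-anti-GST antibody and 30 nM tracer 236 in kinase buffer A, 1 h at RT. The 665/615 nm emission ratio was plotted against inhibitor concentration; IC50 from variable-slope sigmoidal fit.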
In general terms: TR-FRET usually uses a lanthanide donor and a delayed reading to cut background.

Experiment [3] deals with LRRK2 (Homo sapiens, UniProt Q5S007). Description: LRRK2 assay (LanthaScreen Eu Kinase Binding Assay). As to conditions: 5 nM LRRK2, 10 nM tracer 236, RT 1 h; read-out: LRRK2 Activites: IC50. Summed up: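 Kinase binding was detected by europium anti-tag antibody FRET with a competing tracer, so inhibitor binding lowers the FRET signal. IC50 came from a variable-slope sigmoidal fit of emission ratio against inhibitor concentration.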
LRRK2, sequence (Q5S007 970-2527 limits assumed): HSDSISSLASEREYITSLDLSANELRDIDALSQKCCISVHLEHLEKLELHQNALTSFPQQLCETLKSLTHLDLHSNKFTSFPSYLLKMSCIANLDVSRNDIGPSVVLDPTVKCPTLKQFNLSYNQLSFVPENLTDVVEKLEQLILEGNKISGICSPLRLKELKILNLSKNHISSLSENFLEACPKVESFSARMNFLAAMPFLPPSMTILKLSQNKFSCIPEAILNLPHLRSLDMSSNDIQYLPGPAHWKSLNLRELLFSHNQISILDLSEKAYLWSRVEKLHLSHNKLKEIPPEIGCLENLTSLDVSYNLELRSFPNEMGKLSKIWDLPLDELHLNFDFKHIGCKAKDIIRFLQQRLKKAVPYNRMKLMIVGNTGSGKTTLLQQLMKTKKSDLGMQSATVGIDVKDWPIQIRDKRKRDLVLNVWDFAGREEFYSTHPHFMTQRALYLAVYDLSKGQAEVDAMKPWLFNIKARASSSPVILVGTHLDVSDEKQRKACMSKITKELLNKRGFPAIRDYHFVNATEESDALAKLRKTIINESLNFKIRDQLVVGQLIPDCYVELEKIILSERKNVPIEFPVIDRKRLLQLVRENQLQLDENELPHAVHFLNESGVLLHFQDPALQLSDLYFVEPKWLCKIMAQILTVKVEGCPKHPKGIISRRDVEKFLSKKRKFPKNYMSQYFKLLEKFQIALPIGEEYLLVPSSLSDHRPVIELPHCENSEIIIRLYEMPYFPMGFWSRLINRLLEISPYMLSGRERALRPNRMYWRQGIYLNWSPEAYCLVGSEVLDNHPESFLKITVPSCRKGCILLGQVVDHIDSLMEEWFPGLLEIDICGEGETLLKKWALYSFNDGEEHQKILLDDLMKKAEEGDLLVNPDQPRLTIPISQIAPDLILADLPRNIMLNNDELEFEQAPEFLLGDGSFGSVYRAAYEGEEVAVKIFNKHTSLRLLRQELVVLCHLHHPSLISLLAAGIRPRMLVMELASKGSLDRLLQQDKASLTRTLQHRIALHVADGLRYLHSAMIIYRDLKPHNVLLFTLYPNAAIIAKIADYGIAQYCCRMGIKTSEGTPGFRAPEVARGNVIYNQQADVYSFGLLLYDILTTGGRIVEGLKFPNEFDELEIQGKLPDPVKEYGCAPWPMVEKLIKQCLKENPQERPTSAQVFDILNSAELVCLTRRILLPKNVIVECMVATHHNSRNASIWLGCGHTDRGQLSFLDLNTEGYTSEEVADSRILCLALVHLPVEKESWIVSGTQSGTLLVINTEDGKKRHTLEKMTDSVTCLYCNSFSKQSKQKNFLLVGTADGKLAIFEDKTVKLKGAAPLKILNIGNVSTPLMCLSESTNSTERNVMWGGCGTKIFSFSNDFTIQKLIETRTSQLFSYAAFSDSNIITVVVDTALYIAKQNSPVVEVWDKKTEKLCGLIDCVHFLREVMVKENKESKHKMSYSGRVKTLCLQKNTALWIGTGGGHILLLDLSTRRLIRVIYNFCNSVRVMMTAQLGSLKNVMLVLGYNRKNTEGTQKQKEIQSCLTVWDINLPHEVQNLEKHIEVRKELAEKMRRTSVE

MYLK, sequence (Q15746 whole entry): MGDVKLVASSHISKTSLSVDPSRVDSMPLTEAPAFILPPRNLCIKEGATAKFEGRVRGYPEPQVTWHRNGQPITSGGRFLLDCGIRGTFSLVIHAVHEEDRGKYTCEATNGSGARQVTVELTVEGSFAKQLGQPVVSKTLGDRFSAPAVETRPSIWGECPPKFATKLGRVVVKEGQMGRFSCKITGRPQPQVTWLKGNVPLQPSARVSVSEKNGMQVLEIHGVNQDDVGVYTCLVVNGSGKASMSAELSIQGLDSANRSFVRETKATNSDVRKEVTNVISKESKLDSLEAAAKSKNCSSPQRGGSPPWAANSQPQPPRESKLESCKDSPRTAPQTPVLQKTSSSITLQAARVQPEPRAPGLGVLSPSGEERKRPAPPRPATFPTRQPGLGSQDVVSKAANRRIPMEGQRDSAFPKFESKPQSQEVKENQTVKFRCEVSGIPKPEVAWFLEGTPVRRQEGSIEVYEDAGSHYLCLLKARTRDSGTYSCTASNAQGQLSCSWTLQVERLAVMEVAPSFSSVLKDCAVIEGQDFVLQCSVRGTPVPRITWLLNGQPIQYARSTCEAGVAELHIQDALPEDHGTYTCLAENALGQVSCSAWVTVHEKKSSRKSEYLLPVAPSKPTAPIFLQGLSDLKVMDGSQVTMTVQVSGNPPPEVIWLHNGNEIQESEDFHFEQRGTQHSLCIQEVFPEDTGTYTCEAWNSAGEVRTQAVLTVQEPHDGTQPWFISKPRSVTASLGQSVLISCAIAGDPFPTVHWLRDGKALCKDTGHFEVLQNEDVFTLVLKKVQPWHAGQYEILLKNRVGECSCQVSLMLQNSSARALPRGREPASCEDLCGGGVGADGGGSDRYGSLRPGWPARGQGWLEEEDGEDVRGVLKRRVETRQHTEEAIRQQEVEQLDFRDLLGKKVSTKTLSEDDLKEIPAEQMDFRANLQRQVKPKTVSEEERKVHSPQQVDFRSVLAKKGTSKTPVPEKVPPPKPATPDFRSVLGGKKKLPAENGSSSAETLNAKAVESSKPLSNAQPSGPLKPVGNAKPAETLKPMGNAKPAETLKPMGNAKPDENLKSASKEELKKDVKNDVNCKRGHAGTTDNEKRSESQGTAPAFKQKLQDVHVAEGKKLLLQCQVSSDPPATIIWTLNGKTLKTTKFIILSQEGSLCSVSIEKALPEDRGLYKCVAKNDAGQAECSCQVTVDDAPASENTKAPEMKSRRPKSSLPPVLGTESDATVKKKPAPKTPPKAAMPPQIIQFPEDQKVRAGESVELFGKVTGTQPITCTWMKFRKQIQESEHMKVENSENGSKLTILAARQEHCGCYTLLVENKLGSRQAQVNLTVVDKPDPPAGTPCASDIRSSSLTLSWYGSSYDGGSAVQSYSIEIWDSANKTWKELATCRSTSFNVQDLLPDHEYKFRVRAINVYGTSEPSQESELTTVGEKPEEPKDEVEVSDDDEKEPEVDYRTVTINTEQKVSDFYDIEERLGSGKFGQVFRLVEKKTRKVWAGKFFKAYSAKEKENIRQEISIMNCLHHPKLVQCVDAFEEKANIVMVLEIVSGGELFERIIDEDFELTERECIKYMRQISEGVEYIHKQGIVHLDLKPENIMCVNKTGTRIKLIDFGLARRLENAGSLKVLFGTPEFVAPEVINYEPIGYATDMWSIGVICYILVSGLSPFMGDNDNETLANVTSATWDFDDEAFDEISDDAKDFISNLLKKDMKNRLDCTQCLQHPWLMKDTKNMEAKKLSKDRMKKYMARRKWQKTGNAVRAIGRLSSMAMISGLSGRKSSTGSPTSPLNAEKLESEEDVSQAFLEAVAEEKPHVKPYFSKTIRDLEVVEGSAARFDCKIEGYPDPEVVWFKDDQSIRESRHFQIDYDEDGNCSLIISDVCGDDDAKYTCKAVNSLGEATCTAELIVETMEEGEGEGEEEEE

The term IC50 denotes the concentration that inhibits the measured activity by half. As for `CNS(=O)(=O)c1cccc(Nc2nc3ccc(OC)cc3c3c[nH]nc23)c1` [Example #348, 3-((8-methoxy-2H-pyrazolo[3,4-c]quinolin-4-yl)amino)-N-methylbenzenesulfonamide], the Ki in experiment [1] was 10 to 100 nM. Moreover, the IC50 is below 5000 nM in experiment [2] and 10 to 100 nM in experiment [3].

As to `COc1cccc2nc(Nc3ccc(CN(C)C)cc3)c3[nH]ncc3c12` [Example #353, N-(4-((dimethylamino)methyl)phenyl)-9-methoxy-3H-pyrazolo[3,4-c]quinolin-4-amine], in experiment [1], the Ki was 10 to 100 nM. The IC50 in experiment [2] is below 5000 nM; in experiment [3], 10 to 100 nM.
